pIC50, pKd: −log10 of the molar value. Active and inactive are the calls of the source. The rule behind the calls is not given here.

Experimental findings from ChEMBL document CHEMBL3217573, “Diacrylamides as selective G-quadruplex ligands in in vitro and in vivo assays” (Medchemcomm, 2011) are described below.

Test [1] is described as follows: Displacement of thiazole orange from ds26 DNA (unknown origin) preincubated for 10 mins measured after 3 mins by fluorescence spectra analysis.
For a further test, the system named is unidentified. Kind of test: Selectivity ratio of ligand concentration required to displace thiazole orange from 22AG DNA (unknown origin) to same extent as percentage displacement from ds26 DNA (unknown origin) at 2.5 uM of compound.
The test system of test [2] is MCF7. Description: Cytotoxicity against human MCF7 cells assessed as reduction of cell viability after 10 days by MTT assay. The test is classed as functional, cell-based. The settings on record: MCF7, 240 h. (In general: Formazan colour is commonly taken as a measure of viable cells.)
The test system of the next test is Caco-2. Description: Induction of apoptosis in human Caco2 cells after 48 hrs by MTT assay. It counts as functional, cell-based.
Test [3] relates to MCF7. Kind of test: Cytotoxicity against human MCF7 cells assessed as reduction of cell viability after 10 days by MTT assay relative to control. The test is classed as functional.
Test [4] in a line: Displacement of thiazole orange from 22AG DNA (unknown origin) preincubated for 10 mins measured after 3 mins by fluorescence spectra analysis.
Test [5] relates to MCF7. Kind of test: Induction of apoptosis in human MCF7 cells after 48 hrs by MTT assay. It counts as functional, cell-based.
The subject of test [6] is MCF7. Description: Cytotoxicity against human MCF7 cells assessed as reduction of cell viability at 2.5 uM after 24 hrs by MTT assay. It counts as functional.

The pKd is the negative decadic logarithm of the Kd, by convention in mol/L. `O=C(/C=C/c1c2ccccc2c(/C=C/C(=O)NC(CO)(CO)CO)c2ccccc12)NC(CO)(CO)CO` had a pKd in test [1] of 4.65. The Selectivity ratio in the test on unidentified turned out to be 0.
The term pIC50 denotes −log10 of the IC50, conventionally taken in molar units. `NC(=O)/C=C/c1c2ccccc2c(/C=C/C(N)=O)c2ccccc12`: the pIC50 with MCF7 [2] was 5.60. The outcome in the test on Caco-2 and in the test on MCF7 [5] was inactive. The Activity in the test on MCF7 [3] was above 80%. The results for the pKd in test [1] and in test [4] were 5.68 and 7.52, respectively. In the test with unidentified, the Selectivity ratio worked out at 33.3.
As to `COc1ccc2cc3[n+](cc2c1OC)CCc1cc2c(cc1-3)OCO2` [BERBERINE], the values for the pKd in test [1] and in test [4] were 5.75 and 3.66, respectively. In the test on unidentified, the Selectivity ratio was determined as 0.1.
Take `CC(=O)CC(C)(C)NC(=O)/C=C/c1c2ccccc2c(/C=C/C(=O)NC(C)(C)CC(C)=O)c2ccccc12`: the pKd in test [1] is 6.44; in test [4] it was 7.15. In the test on unidentified, the Selectivity ratio is 5.6.
As to `O=C(/C=C/c1c2ccccc2c(/C=C/C(=O)N2CCOCC2)c2ccccc12)N1CCOCC1`, the pKd was 6.54 in test [1] and 4.70 in test [4]. The Selectivity ratio in the test on unidentified was determined as 0. Also, the Activity with MCF7 [6] was determined as 40%.
Turning to `O=C(/C=C/c1c2ccccc2c(Br)c2ccccc12)N1CCOCC1`, the pKd in test [1] is 5.75; in test [4], 6.77. Also, in the test with unidentified, the Selectivity ratio was found to be 5.
